Data published in patent US20110178142A1, “PHARMACEUTICAL COMPOSITION FOR THERAPEUTIC OR PROPHYLACTIC TREATMENT OF BACTERIAL INFECTIONS AND ASSOCIATED DISEASES” (National Institute of Immunology, priority 2008, published 2011).

Columns and labels:
FtsZ [1] = molecular target: T1, FtsZ (Escherichia coli, UniProt P0A9A6); test: Sedimentation assay of FtsZ polymerization; assay type: biochemical, E. coli; details: 50 μM compound; FtsZ 12 μM
T1 construct: The recombinant protein is exactly same as the natural protein; made in house; host or cells: E. coli BL21
Description: FtsZ was over-expressed and purified from E. coli BL21 strain as described by Santa and Panda. (Detection of an intermediate during unfolding of bacterial cell division protein FtsZ: loss of functional properties precedes the global unfolding of FtsZ. (2003). The Journal of Biological Chemistry. 278, 21336-43). The recombinant protein is exactly same as the natural protein. For all the experimental procedures, the above expressed and purified recombinant FtsZ was used. The FtsZ concentration was measured by the Bradford method using BSA as a standard (Bradford M M. (1976) A rapid and sensitive method for the quantitation of microgram quantities of protein utilizing the principle of protein-dye binding. Analytical Biochemistry. 72, 248-54). The purified protein was frozen and stored at −80° C. […]
Then, 10 mM MgSO4 and 1 mM GTP were added to the reaction mixtures and incubated for an additional 15 min at 37° C. Polymerized FtsZ was sedimented at 287,000×g for […], and the protein concentration in the supernatant was measured (Santra M K and Panda D. (2007) Acid-induced loss of functional properties of bacterial cell division protein FtsZ: evidence for an alternative conformation at acidic pH, Proteins. 67,177-88). The protein concentration in the pellet was calculated by subtracting the protein concentration in the supernatant from the total protein concentration.

FtsZ [2] = molecular target: T1, FtsZ; test: Electron microscopic analysis of FtsZ assembly; assay type: biochemical, E. coli
Description: (§1) FtsZ was over-expressed and purified from E. coli BL21 strain as described by Santa and Panda. (Detection of an intermediate during unfolding of bacterial cell division protein FtsZ: loss of functional properties precedes the global unfolding of FtsZ. (2003). The Journal of Biological Chemistry. 278, 21336-43). The recombinant protein is exactly same as the natural protein. For all the experimental procedures, the above expressed and purified recombinant FtsZ was used. The FtsZ concentration was measured by the Bradford method using BSA as a standard (Bradford M M. (1976) A rapid and sensitive method for the quantitation of microgram quantities of protein utilizing the principle of protein-dye binding. Analytical Biochemistry. 72, 248-54). The purified protein was frozen and stored at −80° C. Prior to use, FtsZ was thawed and centrifuged at 287,000 ×g for 30 min to remove any insoluble aggregates.
FtsZ (12 μM) in 25 mM pipes buffer (pH 6.5) was incubated without or with different concentrations of compound for 10 min on ice. Then, 10 mM MgSO4 and 1 mM GTP were added to the reaction mixtures and incubated for an additional 15 min at 37° C. Samples were transferred onto a formvar-carbon coated copper grid, stained with 2% uranyl acetate and observed using Transmission Electron Microscope (FEI TECHNAI G^2 12) as described previously (Beuria T K, Santra M K and Panda D. (2005) Sanguinarine blocks cytokinesis in bacteria by inhibiting FtsZ assembly and bundling. Biochemistry. 44, 16584-93).
The observed difference in the thickness of the FtsZ protofilament bundles in the absence and presence of 10 and 25 μM concentration is significant at a 99.9% confidence level (p<0.001).

FtsZ [3] = molecular target: T1, FtsZ; test: Dilution-induced disassembly of preformed FtsZ filaments; assay type: biochemical, E. coli; details: 20 fold dilution, 5 min at 37° C., concentration dependent
Description: as §1
FtsZ (30 μM) was polymerized in 25 mM pipes buffer in the presence of 5 mM MgCl2, 1 mM GTP and 50 mM KCl. Preformed FtsZ polymers were diluted 20 fold in warm 25 mM pipes buffer in the absence and presence of different concentrations of Compound 1 and the mixtures were incubated for 5 min at 37° C. The polymers were then collected by centrifugation.

FtsZ [4] = molecular target: T1, FtsZ; test: GTPase activity of FtsZ (malachite green ammonium molybdate assay); assay type: biochemical, E. coli
Description: as §1
It was then polymerized in the presence of 10 mM magnesium and 1 mM GTP at 37° C. The GTP hydrolysis reaction was quenched at different time points by adding perchloric acid. Moles of inorganic phosphate released per mole of FtsZ were measured using the standard malachite green ammonium molybdate assay (Geladopoulos T P, Sotiroudis T G and Evangelopoulos A E. (1991). A malachite green colorimetric assay for protein phosphatase activity. Analytical Biochemistry.192,112-6;Beuria T K, Krishnakumar S S, Sahar S, Singh N, Gupta K, Meshram M and Panda D. (2003) Glutamate-induced assembly of bacterial cell division protein FtsZ. The Journal of Biological Chemistry. 278, 3735-41).

FtsZ (Y371W) = molecular target: T2, FtsZ (Y371W) (Escherichia coli, UniProt P0A9A6, Y371W); test: Binding to FtsZ by tryptophan fluorescence quenching, double reciprocal plot; design: species or system E. coli; details: FtsZ (Y371W) 1 μM, 25° C., read-out: dissociation constant of FtsZ-compound complex
T2 sequence (P0A9A6 1-383 Y371W): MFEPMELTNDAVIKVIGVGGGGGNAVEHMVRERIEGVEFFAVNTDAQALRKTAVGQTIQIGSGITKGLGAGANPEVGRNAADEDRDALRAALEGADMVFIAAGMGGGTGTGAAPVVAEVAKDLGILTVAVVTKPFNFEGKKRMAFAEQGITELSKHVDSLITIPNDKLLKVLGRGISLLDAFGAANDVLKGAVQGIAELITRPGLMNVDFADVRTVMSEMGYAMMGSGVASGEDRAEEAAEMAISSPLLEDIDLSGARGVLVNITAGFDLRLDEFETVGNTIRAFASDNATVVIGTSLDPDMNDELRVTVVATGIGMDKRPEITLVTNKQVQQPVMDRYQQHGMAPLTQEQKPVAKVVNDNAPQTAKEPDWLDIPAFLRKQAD
Method: (Beuria T K, Santra M K and Panda D. (2005) Sanguinarine blocks cytokinesis in bacteria by inhibiting FtsZ assembly and bundling. Biochemistry. 44, 16584-93). […] The change in the fluorescence intensity was used to calculate the dissociation constant of FtsZ-compound complex. A dissociation constant of 15±1.5 μM was determined using a double reciprocal plot of the binding data (FIG. 5B).

FtsZ [5] = molecular target: T1, FtsZ; test: Far-UV circular dichroism of FtsZ; design: species or system E. coli; details: 0-50 μM compound; FtsZ 1 μM
Description: as §1
The far-UV CD spectra were recorded using a JASCO spectropolarimeter. The secondary structure was monitored over the wavelength range of 200-260 nm using a 0.1-cm path length cuvette and the ellipticity was determined at 220 nm. Each spectrum was recorded using an average of 3 scans.

T1 sequence (P0A9A6 whole entry): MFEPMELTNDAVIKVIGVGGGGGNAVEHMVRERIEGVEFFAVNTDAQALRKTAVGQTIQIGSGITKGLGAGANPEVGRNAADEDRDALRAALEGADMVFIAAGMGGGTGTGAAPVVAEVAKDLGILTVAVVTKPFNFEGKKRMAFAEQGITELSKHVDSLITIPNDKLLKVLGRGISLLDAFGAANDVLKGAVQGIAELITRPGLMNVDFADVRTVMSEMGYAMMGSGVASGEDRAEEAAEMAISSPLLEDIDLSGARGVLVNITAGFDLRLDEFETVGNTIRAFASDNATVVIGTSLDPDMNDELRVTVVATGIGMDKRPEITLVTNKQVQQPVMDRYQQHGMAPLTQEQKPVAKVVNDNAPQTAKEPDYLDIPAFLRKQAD

## O=C(O)c1cccc(-c2ccc(C=C3SC(=S)N(c4cccc(C(F)(F)F)c4)C3=O)o2)c1 [the compound, 3-{5-[4-Oxo-2-thioxo-3-(3-trifluoromethyl-phenyl)-thiazolidin-5-ylidenemethyl]-furan-2-yl}-benzoic acid]
FtsZ [1]
  increase of sedimentable polymeric mass of FtsZ: 25%
FtsZ [2]; 10 μM compound
  average thickness of FtsZ bundles: 64±3 nm
FtsZ [2]; 25 μM compound
  average thickness of FtsZ bundles: 66±4.3 nm
FtsZ [2]; 50 μM compound, large number of aggregates observed
  average thickness of FtsZ bundles: 46±3.5 nm
FtsZ [3]
  dilution-induced disassembly of FtsZ protofilaments: strongly prevented
FtsZ [4]; 10 μM compound
  rate of GTP hydrolysis at 5 min: 2.9 phosphate release per FtsZ per min
FtsZ [4]; 25 μM compound
  rate of GTP hydrolysis at 5 min: 1.5 phosphate release per FtsZ per min
FtsZ [4]; 50 μM compound
  rate of GTP hydrolysis at 5 min: 1.3 phosphate release per FtsZ per min
FtsZ (Y371W)
  Kd: 15 ± 1.5 µM
FtsZ [5]
  effect on secondary structure of FtsZ (far-UV CD): did not change the secondary structure
